The source of these data is ChEMBL document CHEMBL1141652 (J Med Chem, 2008).

The target of assay [1] is Disintegrin and metalloproteinase domain-containing protein 17 (Homo sapiens, UniProt P78536).
Description: Inhibition of human recombinant TACE
Assay [2] in a line: Selectivity for human recombinant TACE over ADAM10.
A short description of assay [3]: Selectivity for human recombinant TACE over BMP1.
Assay [4] is described as follows: Selectivity for human recombinant TACE over MMP3.
Assay [5] can be described thus: Selectivity for human recombinant TACE over MMP2.
A short description of assay [6]: Selectivity for human recombinant TACE over MMP14.
A short description of assay [7]: Selectivity for human recombinant TACE over MMP1.
A short description of assay [8]: Selectivity for human recombinant TACE over MMP7.

Chain of Disintegrin and metalloproteinase domain-containing protein 17 (P78536 whole entry, the tested form may be a part): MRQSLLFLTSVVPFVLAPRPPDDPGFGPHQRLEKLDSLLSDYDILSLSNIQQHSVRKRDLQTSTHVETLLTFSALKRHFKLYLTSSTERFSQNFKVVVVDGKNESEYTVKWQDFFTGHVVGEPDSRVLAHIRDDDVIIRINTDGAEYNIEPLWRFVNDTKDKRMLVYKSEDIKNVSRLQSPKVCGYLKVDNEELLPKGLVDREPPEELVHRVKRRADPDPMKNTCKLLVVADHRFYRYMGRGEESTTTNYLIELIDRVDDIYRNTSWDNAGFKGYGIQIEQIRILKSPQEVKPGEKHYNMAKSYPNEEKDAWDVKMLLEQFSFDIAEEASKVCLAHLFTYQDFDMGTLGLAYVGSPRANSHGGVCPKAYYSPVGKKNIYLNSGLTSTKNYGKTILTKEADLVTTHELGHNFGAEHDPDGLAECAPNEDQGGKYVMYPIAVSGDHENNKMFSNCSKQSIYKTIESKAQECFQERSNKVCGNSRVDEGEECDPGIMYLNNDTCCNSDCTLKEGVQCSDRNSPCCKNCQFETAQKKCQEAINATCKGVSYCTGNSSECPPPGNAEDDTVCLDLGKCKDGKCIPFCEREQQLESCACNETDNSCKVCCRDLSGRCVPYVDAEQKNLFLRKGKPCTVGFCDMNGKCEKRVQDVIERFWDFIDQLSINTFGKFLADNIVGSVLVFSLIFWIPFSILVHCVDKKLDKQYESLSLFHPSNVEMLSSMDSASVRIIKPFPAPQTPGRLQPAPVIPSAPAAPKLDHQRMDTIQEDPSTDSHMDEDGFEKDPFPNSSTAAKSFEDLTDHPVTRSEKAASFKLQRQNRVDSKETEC

On to `COC(=O)C1(Cc2cccc(OCc3ccccc3)c2)CC1C(=O)NO` (racemic), for which the affinity in assay [1] corresponds to a Ki of 4000 nM.
Still for that read-out and setting: next, `CC#CCOc1ccc(C[C@]2(C(=O)OC)C[C@@H]2C(=O)NO)cc1`: 420 nM; `NC(=O)C1(c2cccc(OCc3ccccc3)c2)CC1C(=O)NO` (stereo not given): 1200 nM; `Cc1cc(COc2cccc([C@@]3(C(N)=O)C[C@H]3C(=O)NO)c2)c2ccccc2n1` (relative stereo): 700 nM.
Regarding `COC(=O)[C@]1(c2cccc(OCc3ccc(Cl)cc3)c2)C[C@H]1C(=O)NO`, the Ki in assay [1] was determined as 50 nM.
In assay [1], `CNC(=O)[C@@]1(Cc2ccc(OCc3cc(C)nc4ccccc34)cc2)C[C@@H]1C(=O)NO` displayed a Ki of 14 nM.
Regarding `Cc1cc(COc2cccc([C@@]3(C(=O)N(C)Cc4ccccc4)C[C@H]3C(=O)NO)c2)c2ccccc2n1`, in assay [1], the affinity corresponds to a Ki of 3000 nM. This Ki is about 210-fold higher than that of the compound before.
In turn, `NC(=O)C1(Cc2ccc(OCc3ccccc3)cc2)CC1C(=O)NO` (racemic) displayed a Ki in assay [1] of 360 nM.
In assay [1], `Cc1cc(COc2ccc(C[C@]3(C(=O)N(C)C)C[C@@H]3C(=O)NO)cc2)c2ccccc2n1` displayed a Ki of 1 nM.
Turning to `COC(=O)[C@@]1(Cc2ccc(OCC3CCCCC3)cc2)C[C@@H]1C(=O)NO`, affinity in assay [1] was put at a Ki of 26000 nM.
In assay [1], `Cc1cc(COc2cccc([C@@]3(C(=O)NC4CCCCC4)C[C@H]3C(=O)NO)c2)c2ccccc2n1` yielded a Ki of 9 nM.
On the same count and under the same terms, next, `Cc1cc(COc2cccc([C@@]3(C(=O)N(C)C)C[C@H]3C(=O)NO)c2)c2ccccc2n1`: 2700 nM; `COC(=O)[C@]1(c2cccc(OCCc3cccc4ccccc34)c2)C[C@H]1C(=O)NO`: 50 nM; `COC(=O)[C@@]1(Cc2ccc(OCc3ccccc3Cl)cc2)C[C@@H]1C(=O)NO`: 260 nM.
Turning to `Cc1cc(COc2cccc([C@@]3(C(=O)Nc4ccccc4)C[C@H]3C(=O)NO)c2)c2ccccc2n1`, affinity in assay [1] was put at a Ki of 11 nM.
For `CC#CCOc1cccc([C@@]2(C(=O)OC)C[C@H]2C(=O)NO)c1`, the inhibitory constant (Ki) in assay [1] amounted to 1600 nM.
For the compound `COC(=O)[C@]1(c2cccc(OCc3ccc4ccccc4c3)c2)C[C@H]1C(=O)NO`, in assay [1], the affinity, expressed as Ki, was 3000 nM.
On the same count and under the same terms, the value for `Cc1cc(COc2cccc([C@@]3(C(=O)NCc4ccccc4)C[C@H]3C(=O)NO)c2)c2ccccc2n1` was 140 nM.
In the case of `CC#CCOc1ccc(C[C@]2(C(N)=O)C[C@@H]2C(=O)NO)cc1`, affinity in assay [1] was put at a Ki of 80 nM.
Compound `COC(=O)[C@]1(c2cccc(OCc3cccc(C(F)(F)F)c3)c2)C[C@H]1C(=O)NO` gave a Ki in assay [1] of 70 nM. This Ki and that of the compound before are within 1.5-fold of each other.
Compound `CCOC(=O)C1(c2ccc(OCc3ccccc3)cc2)CC1C(=O)NO` (racemic) returned a Ki in assay [1] of 20000 nM.
`COC(=O)[C@]1(c2cccc(OCc3cccc(OC)c3)c2)C[C@H]1C(=O)NO` showed an inhibition constant Ki in assay [1] of 110 nM.
Compound `COC(=O)[C@]1(c2cccc(OCc3cccc(F)c3)c2)C[C@H]1C(=O)NO` returned a Ki in assay [1] of 80 nM.
In assay [1], `COC(=O)[C@]1(c2cccc(Oc3ccccc3C)c2)C[C@H]1C(=O)NO` had a Ki of 240 nM. Against the preceding compound, the Ki is about 3-fold higher.
As to `COC(=O)[C@]1(c2cccc(Oc3ccc4ccccc4c3)c2)C[C@H]1C(=O)NO`, the affinity in assay [1] corresponds to a Ki of 70 nM. This Ki lies about 3.4-fold lower than the previous one.
For `Cc1cc(COc2cccc([C@@]3(C(=O)OC(C)C)C[C@H]3C(=O)NO)c2)c2ccccc2n1`, the Ratio Ki came out at 4 in assay [2]; 800 in assay [3]; 1500 in assay [4]; 1400 in assay [5]; 3000 in assay [6]; 7400 in assay [7]. Moreover, the Ratio Ki in assay [8] turned out to be 12400. This compound also returned a Ki in assay [1] of 8 nM.
Turning to `COC(=O)[C@]1(c2cccc(OCc3ccc(Cl)c(Cl)c3)c2)C[C@H]1C(=O)NO`, the Ratio Ki in assay [2] was found to be 10; in assay [3], 400; in assay [4], 600; in assay [5], 2800; in assay [6], 2400; in assay [7], 6800. Moreover, the Ratio Ki in assay [8] is 5400. The Ki in assay [1] was 11 nM.
In the case of `COC(=O)[C@]1(c2cccc(OCC3CCCCC3)c2)C[C@H]1C(=O)NO`, the affinity in assay [1], expressed as Ki, was 900 nM.
In turn, `COC(=O)C1(c2cccc(OCc3ccccc3)c2)CC1C(=O)NO` (racemic) had a Ki in assay [1] of 500 nM.
In assay [1], `CNC(=O)[C@]1(c2cccc(OCc3cc(C)nc4ccccc34)c2)C[C@H]1C(=O)NO` showed a Ki of 100 nM.
`COC(=O)[C@@]1(Cc2ccc(OCc3ccc(Cl)c(Cl)c3)cc2)C[C@@H]1C(=O)NO` showed a Ki in assay [1] of 130 nM.
For `COC(=O)[C@]1(c2cccc(OCCc3ccccc3)c2)C[C@H]1C(=O)NO`, in assay [1], the Ki was determined as 290 nM.
`COC(=O)[C@]1(c2cccc(OC)c2)C[C@H]1C(=O)NO` registered a Ki in assay [1] of 3000 nM. This Ki is about 10-fold higher than that of the compound before.
Consider `COC(=O)[C@]1(c2cccc(OCCc3ccc4ccccc4c3)c2)C[C@H]1C(=O)NO`, for which the Ki in assay [1] came out at 60 nM.
For the compound `CCOC(=O)[C@]1(c2cccc(OCc3cc(C)nc4ccccc34)c2)C[C@H]1C(=O)NO`, the Ki in assay [1] worked out at 16 nM.
On the same count and under the same terms, next, `COC(=O)C1(Cc2ccc(OCc3ccccc3)cc2)CC1C(=O)NO` (racemic): 800 nM.
`COC(=O)[C@@]1(Cc2ccc(OCCc3cccc4ccccc34)cc2)C[C@@H]1C(=O)NO`: in assay [1], the inhibitory constant (Ki) is > 100000 nM.
Regarding `COC(=O)[C@]1(c2cccc(Oc3ccccc3)c2)C[C@H]1C(=O)NO`, in assay [1], affinity was put at a Ki of 1100 nM. That is a single-digit micromolar value.
In assay [1], `COC(=O)[C@]1(c2cccc(Oc3ccc(C)cc3)c2)C[C@H]1C(=O)NO` registered a Ki of 140 nM.
As to `COC(=O)[C@]1(c2cccc(OCc3ccc(C(F)(F)F)cc3)c2)C[C@H]1C(=O)NO`, the Ratio Ki in assay [2] is 8; in assay [3], 700; in assay [4], 200; in assay [5], > 600; in assay [6], 4000; in assay [7], 1800. Besides, in assay [8], the Ratio Ki is > 600. This compound had a Ki in assay [1] of 18 nM.
For `CCOC(=O)[C@@]1(Cc2ccc(Oc3ccccc3)cc2)C[C@@H]1C(=O)NO`, in assay [1], affinity was put at a Ki of 3100 nM.
`Cc1cc(COc2cccc([C@@]3(C(=O)N4CCN(C)CC4)C[C@H]3C(=O)NO)c2)c2ccccc2n1` registered a Ki in assay [1] of 5000 nM.
Still for that read-out and setting: next, `COC(=O)[C@@]1(Cc2ccc(OCc3ccccc3)cc2)C[C@@H]1C(=O)NO` (racemic): 800 nM.
On the same count and under the same terms, next, `COC(=O)[C@@]1(Cc2ccc(OCCc3ccc4ccccc4c3)cc2)C[C@@H]1C(=O)NO`: > 100000 nM.

The term Ki denotes a dissociation constant, usually derived from enzyme kinetics or from competition with a known ligand. A low value points to tighter binding.
